Legend:
[1] = system: 129/SvEv mice; assay: Novelty-suppressed feeding test (NSF); format: in vivo, mouse
Method: The Novelty-suppressed feeding test was carried out during a 5-min period as previously described (Santarelli et al., 2001). Briefly, the testing apparatus consisted of a plastic box, 50×50×20 cm. The floor was covered with approximately 2 cm of wooden bedding. Twenty-four hours prior to behavioral testing, all food was removed from the home cage. At the time of testing, a single pellet of food (regular chow) was placed on a white paper platform positioned in the center of the box. An animal was placed in a corner of the maze and a stopwatch was immediately started. The measure of interest (chewing) was scored when the mouse was sitting on its haunches and biting with the use of forepaws. Immediately after this test, mice were transferred to their home cage and the amount of food consumed in 5 min was measured (home cage food consumption). […] Mice were always tested during the light period.
The NSF is a conflict test in which food-deprived animals are presented with a food pellet placed in the center of a brightly-lit open field. This paradigm elicits competing motivations: the drive to eat the food pellet, and the fear of venturing into the center of the arena.
Haloperidol, an antipsychotic that antagonizes D2 dopamine receptors, was used as a negative control because it is devoid of antidepressant activity in humans. NSF performance was assessed after either 5 or 28 days of oral drug administration.

[2] = system: BrdU-positive cells in the dentate gyrus; assay: BrdU labeling of cell proliferation, sacrifice 24 hr after BrdU; format: in vivo, mouse; conditions: for cell proliferation (BrdU-labeled cells in the SGZ): 1 mg/kg/day mini pumps; for BrdU-labeled cells in dentate gyrus: 27 days of treatment, 24 hours after BrdU
Method: (§1) To assess the effect of antidepressant or X-irradiation treatments on the number of BrdU-positive cells, mice were administered BrdU (4×75 mg/kg i.p., dissolved in saline, every 2 hr; Roche Diagnostic, Indianapolis, Ind.) and sacrificed 24 hr after the last BrdU injection (FIG. 2A, 3B, 5C-D). To determine cell survival and phenotype after the various antidepressant treatments, fluoxetine, imipramine and vehicle-treated mice were allowed to survive for 28 days after the last BrdU injection (FIG. 2C-D, 3C). After deep anesthesia with a mixture of ketamine/xylazine (100 mg/kg and 7 mg/kg respectively), mice were transcardially perfused (cold saline for 2 min, followed by 4% cold paraformaldehyde/0.1 M phosphate buffer for 5 min) and brains were collected for immunohistochemistry. All brains were post-fixed overnight in 4% paraformaldehyde at 4° C., then cryoprotected in 30% sucrose and stored at 4° C. Serial sections of the brains were cut (35 μm sections) through the entire hippocampus (plates 41-61; Franklin and Paxinos, 1997) on a cryostat and stored in PBS with 0.1% NaN3. For DAB staining, sections were slide-mounted and boiled in citric acid, pH 6.0, for 5 min, rinsed with PBS, and treated with 0.01% trypsin in Tris/CaCl2 for 10 min. Brain sections were incubated for 30 min with 2N HCl and blocked with 5% NGS (Jackson ImmunoResearch, West Grove, Pa.). Sections were then incubated over night at room temperature with anti-mouse BrdU (1:100; Becton-Dickinson). After washing with PBS, sections were incubated for 1 hr with secondary antibody (1:200 biotinylated goat anti-mouse; Sigma-Aldrich, St. Louis, Mo.) followed by amplification with an avidin-biotin complex (Vector Laboratories). The staining was visualized with DAB (Sigma-Aldrich, St. Louis, Mo.). For fluorescent double-labeling, the DNA-denaturation procedure consisted of the following steps: 2 hr incubation in 50% formamide-2×SSC at 65° C., 5 min rinse in 2×SSC, 30 min incubation in 2N HCl at 37° C., and 10 min rinse in 0.1 M boric acid, pH 8.5. Sections were then incubated in TBS-0.1% Triton X-100 (Tx)-5% normal donkey serum (NDS) for 30 min, followed by anti-rat BrdU primary antibody (1:100; Accurate Westbury, N.Y. or Serotec, Oxford, UK) in TBS/NDS/Tx for 24 hrs at 4° C. in combination with either a mouse monoclonal antibody to NeuN (1:500; Chemicon, Temecula, Calif.) or a rabbit polyclonal antibody to GFAP (1:800; DAKO, Carpinteria, Calif.). The fluorescent secondary antibodies used were biotin-conjugated donkey anti-rat (1:200) plus streptavidin Cy2 (1:200), donkey anti-mouse Cy3 (1:500), or donkey anti-rabbit Cy3 (1:500) (Jackson ImmunoResearch, West Grove, Pa.). Fluorescent images were taken with a Bio-Rad MRC 1000 confocal laser scanning system coupled to a Zeiss Axiovert 100 inverted microscope. For each image acquisition, a Kalman average of five frames was used. For quantification of BrdU/NeuN or BrdU/GFAP double-labeled cells, at least 50 BrdU-positive cells per animal were analyzed using Z-plane sectioning (1 μm steps).
It has recently been shown that various antidepressant treatments, including fluoxetine, increase neurogenesis in the dentate gyrus (DG) of the rat hippocampus (Malberg et al., 2000). […] To confirm that chronic fluoxetine induces changes in the number of BrdU-positive cells in the DG, we treated adult mice with either vehicle or fluoxetine for 5, 11 or 28 days. On the final day of treatment, all animals were injected with BrdU (four injections of 75 mg/kg), sacrificed 24 hours later, and perfused for immunohistochemistry. The treatment with fluoxetine caused a 60% increase in the number of BrdU positive cells in the DG of animals after either 11 or 28 days, but had no effect in animals treated for 5 days (FIGS. 2A and B).
(§2) In this set of experiments, wild type and 5-HT1A receptor KO mice were injected with BrdU following 27 days of treatment with fluoxetine, imipramine, or vehicle. […]

[3] = 129/SvEv, mouse, in vivo, po
Method: Fluoxetine (Eli Lilly, Indianapolis, Ind.), Imipramine (Sigma-Aldrich, St. Louis, Mo.), Desipramine (Sigma-Aldrich, St. Louis, Mo.) and Haloperidol (Sigma-Aldrich, St. Louis, Mo.) were dissolved in tap water at a concentration of 80, 160, 160, and 8 mg/L, respectively. These concentration were established based on the average drinking amount and average weight of the mice used in the study to achieve a final dose of 10 (fluoxetine), 20 (imipramine and desipramine) and 1 (haloperidol) mg/kg/day. […] Vehicle animals received tap water. 8-hydroxy-2-(di-n-propylamino) tetralin (8-OH-DPAT, Sigma-Aldrich, St. Louis, Mo.) was dissolved in sterile saline (0.9% NaCl) at a concentration of 4.5 mg/ml, and delivered through Alzet osmotic mini-pumps (model 2004, Alzet, Cupertino, Calif.) implanted subcutaneously 28 days prior to behavioral testing. The final average dose delivered was 1 mg/kg/day. Sham mice were implanted with mini-pumps containing sterile saline.

[4] = system: BrdU-positive cells within the SGZ and granule cell layer; assay: Survival and phenotype of BrdU-positive cells 28 days after BrdU injection; format: in vivo, mouse; conditions: for BrdU-positive cells surviving 28 days after BrdU injection: chronic treatment
Method: as §1
To determine the fate of hippocampal cells labeled with BrdU following chronic treatment with either fluoxetine or vehicle, animals were allowed to survive for a period of four weeks after injection of BrdU. During this time fluoxetine oral treatment was suspended and animals were returned to tap water. Brain sections were co-labeled with antibodies raised against BrdU and either the mature neuronal marker NeuN or the astroglial marker GFAP. […] The percentage of BrdU-positive cells within the SGZ and granule cell layer that expressed NeuN was 70±2%, and the percentage of BrdU-positive cells that expressed GFAP was 15±3%. These proportions were not influenced by the antidepressant treatment, as previously reported (Malberg et al., 2000).
as §2

[5] = system: BALB/c mice; assay: Chronic unpredictable stress paradigm (CUS); format: in vivo, mouse; conditions: for state of the fur (coat score) / grooming latency: 10 mg/kg/day i.p.; for weight loss induced by stress: data not shown
Method: The stress regimen used is a variant of the chronic mild stress procedures described by Willner et al. (Willner et al., 1992). Mice were subjected to various and repeated unpredictable stressors for a period of five weeks (Griebel et al., 2002). The different stressors used were: alterations of the bedding (repeated sawdust changing, removal of sawdust, damp sawdust, substitution of sawdust with 37° C. water); cage tilting (45°); predator sounds (15 min.); cage shift (mice were positioned in the empty cage of another male); light to dark or dark to light shifts (four light/dark successions of 30 min every 24 hours); reversal of the light/dark cycle. The fluoxetine treatment (10 mg/kg/day, i.p.) started at the beginning of the third week. The state of the coat was assessed at the end of the stress regimen (end of fifth week). The total score resulted from the sum of the score of seven different body parts: head, neck, dorsal coat, ventral coat, tail, forepaws and the hindpaws. A score of 0 was given for a well-groomed coat and 1 for a spoiled coat (see Griebel, 2002). The grooming latency was assessed at the end of the sixth week. This test consisted in squirting 200 μl of a 10% sucrose solution on the mouse's snout. The latency to start grooming was then recorded.
The CUS protocol consists of the sequential application of a number of stressors, presented in a varied and unpredictable manner during 5 weeks. The continued application of these stressors produces a deterioration in the state of the coat, an impaired grooming response, and weight loss (Griebel et al., 2002; Willner et al., 1992). ADs such as fluoxetine can reverse these stress-induced effects after chronic, but not acute, administration (Griebel et al., 2002; Willner et al., 1992).
Sham and irradiated mice were subjected to five weeks of CUS, beginning two weeks after the final X-ray dose, and half of the animals in each group were administered fluoxetine (10 mg/kg/day, i.p.) from weeks 3-6. The state of each animal's fur was assessed at the end of the stress period, and assigned a score based on observations from several body regions (see methods). Fluoxetine treatment was continued for one more week, after which we measured the latency to begin grooming following application of a sucrose solution to the head of each animal.

[6] = system: BrdU-positive cells in the dentate gyrus; assay: BrdU labeling of cell proliferation, sacrifice 24 hr after BrdU; format: in vivo, mouse; conditions: chronic treatment
[7] = 28-day treatment via drinking water, compared to vehicle
[8] = 5-HT1A knockout (-/-) mice, 28 days, vs vehicle
[9] = wild type (+/+) mice, 28 days, vs vehicle
[10] = 5-day treatment via drinking water, compared to vehicle
[11] = X-irradiated animals, chronic treatment
[12] = sham (non-irradiated) animals, chronic treatment
[13] = four weeks after BrdU, chronic fluoxetine or vehicle, proportions not influenced by treatment

Compound	latency to feed [1, 7]	latency to feed [1, 8]	latency to feed [1, 9]	time by which steady serum levels had been achieved [3]	latency to feed [1, 10]	latency to feed [1, 11]	latency to feed [1, 12]	BrdU-labeled cells in dentate gyrus ([2]; 5-HT1A receptor KO mice)	BrdU-labeled cells in dentate gyrus ([2]; wild type mice)	BrdU-positive cells surviving 28 days after BrdU injection ([4]; 5-HT1A receptor KO mice)	BrdU-positive cells surviving 28 days after BrdU injection ([4]; WT mice)	further results
CCCN(CCC)C1CCc2cccc(O)c2C1 (stereo not shown) [8-OH-DPAT, 8-hydroxy-2-(di-n-propylamino) tetralin]	–	–	–	–	–	–	–	–	–	–	–	latency to feed ([1]; 5-HT1A receptor KO mice, 28 days s.c. osmotic mini pumps, 1 mg/kg/day, vs sham): ineffective; latency to feed ([1]; WT mice, 28 days s.c. osmotic mini pumps, 1 mg/kg/day, vs sham): significantly decreased; cell proliferation (BrdU-labeled cells in the SGZ) ([2]; 5-HT1A receptor KO mice, chronic treatment): not observed; cell proliferation (BrdU-labeled cells in the SGZ) ([2]; WT mice, chronic treatment): increase in cell proliferation
O=C(CCCN1CCC(O)(c2ccc(Cl)cc2)CC1)c1ccc(F)cc1 [Haloperidol]	ineffective	–	–	–	–	–	–	–	–	–	–	–
CNCCCN1c2ccccc2CCc2ccccc21 [desipramine, Desipramine]	significant decreases	effective	significantly decreased	≤ 5 days	–	–	–	–	–	–	–	–
CNCCC(Oc1ccc(C(F)(F)F)cc1)c1ccccc1 (stereo not shown) [fluoxetine, Fluoxetine]	significant decreases	insensitive	significantly decreased	≤ 5 days	had no effect	no such anxiolytic-like effect	significant reduction	had no effect	two-fold increase	not in KO	had an effect	increase in the number of BrdU positive cells in the DG ([2]; after either 11 or 28 days of treatment, vs vehicle): 60%; number of BrdU positive cells in the DG ([2]; animals treated for 5 days): had no effect; cell proliferation after irradiation ([2]; irradiated animals, chronic treatment): had no effect; cell proliferation in the SGZ ([2]; non-irradiated mice, chronic treatment): increased cell proliferation; percentage of BrdU-positive cells that expressed GFAP [4, 13]: 15±3%; percentage of BrdU-positive cells that expressed NeuN [4, 13]: 70±2%; state of the fur (coat score) ([5]; irradiated animals): absent; weight loss induced by stress ([5]; irradiated animals): blocked this effect; grooming latency ([5]; irradiated mice): not in irradiated mice; state of the fur (coat score) ([5]; sham animals): significantly improved; weight loss induced by stress ([5]; sham animals): trend to reverse the weight loss; grooming latency ([5]; sham mice): decreased; cell proliferation in the SVZ [6]: had no effect
CN(C)CCCN1c2ccccc2CCc2ccccc21 [imipramine, Imipramine]	significant decreases	effective	significantly decreased	≤ 5 days	had no effect	no such anxiolytic-like effect	significant reduction	significant increase	significant increase	effective	effective	increase in the number of BrdU positive cells (SGZ and GCL) ([2]; both genotypes (+/+ and 5-HT1A -/-), 4 weeks of treatment): ~2 fold
NCCC(Oc1ccc(C(F)(F)F)cc1)c1ccccc1 (stereo not shown) [nor-fluoxetine]	–	–	–	≤ 5 days	–	–	–	–	–	–	–	–

Reference: patent publication US20060078499A1, “Use of hedgehog agonist to treat depression” (priority 2003, published 2006)
